Measured values published in the OPERA property sets (Mansouri et al. 2018).

Settings: for log10 biotransformation half-life (days) / log10 BCF: fish

Structure (SMILES) | melting point | boiling point | also measured
C=C(C)C(=O)OC(C)(C)C |  |  | ready biodegradability: not readily biodegradable
c1ccc2c(c1)CC1c3ccccc3CCN1C2 (centres undefined) | 85 °C |  | ready biodegradability: not readily biodegradable
COc1cc2c(c(OC)c1OC)-c1ccc(SC)c(=O)cc1[C@@H](NC(C)=O)CC2 | 193 °C |  | 
CCCC(=O)O[C@H]1[C@H](C)O[C@@H](O[C@H]2[C@H](N(C)C)[C@@H](O)[C@H](O[C@H]3[C@@H](CC=O)C[C@@H](C)[C@@H](O)C=CC=CC[C@@H](C)OC(=O)C[C@@H](O)[C@@H]3OC)O[C@@H]2C)C[C@@]1(C)OC(=O)CC | 116 °C |  | 
Nc1ccc(S)cc1 | 46 °C |  | 
C[C@]12CC[C@H]3[C@@H](CCC4=CC(=O)CC[C@@]43C)[C@@H]1CC[C@@H]2C(=O)CO | 142 °C |  | 
CCCCCCc1ccc2c(c1)CCC2 | -34 °C | 292 °C | 
CCOC(=O)CC(=O)c1ccc(OC)cc1 |  |  | ready biodegradability: readily biodegradable
C=C(C)OC |  | 35 °C | log10 vapour pressure (mmHg): 2.71
C[Si]1(C)O[Si](C)(C)O[Si](C)(C)O[Si](C)(C)O1 | 17.5 °C | 176 °C | log10 Henry constant (atm·m³/mol): 1.08; log10 vapour pressure (mmHg): 0.0212; log10 biotransformation half-life (days): 1.88
CCCOc1ccc(O)cc1 | 56.5 °C |  | 
CCCCOc1ccccc1OCCCC |  |  | ready biodegradability: not readily biodegradable
C#COCC |  | 50 °C | 
CCC(=O)Cl | -94 °C | 80 °C | 
CCCCCCCCCCCCCCCCCC(=O)NCO |  |  | ready biodegradability: readily biodegradable
CCCN(CCC)S(=O)(=O)c1ccc(C(=O)O)cc1 | 195 °C |  | 
NCc1cccc(CN)c1 |  | 247 °C | ready biodegradability: not readily biodegradable; log10 BCF: 0.43
CNc1cccc2ccccc12 | 174 °C | 294 °C | 
C[C@H]1[C@H]2CC[C@H]3[C@@H]4CC=C5C[C@@H](N(C)C)CC[C@]5(C)[C@H]4CC[C@]23CN1C | 126 °C |  | 
CC(C)(C)Cc1ccccc1 |  | 186 °C | 
CCOC | -113 °C | 7.4 °C | log10 vapour pressure (mmHg): 3.17
CCCCCN1C(=O)c2ccc([N+](=O)[O-])cc2C1=O |  |  | ready biodegradability: readily biodegradable
COc1ccc(NC(C)=O)cc1Cl |  |  | log10 Koc (L/kg): 1.95
CC1(N)CCC(C(C)(C)N)CC1 (centres undefined) | -45 °C |  | 
CCCCCCCC/C=C\CCCCCCCC(=O)OCC | -13.1 °C |  | 
COP(=O)(OC)C(O)C(Cl)(Cl)Cl (centres undefined) | 77 °C |  | log10 Koc (L/kg): 1.9; log10 vapour pressure (mmHg): -5.11; ready biodegradability: not readily biodegradable

Structure (SMILES) | melting point | boiling point | also measured
COc1cccc(C(=O)O)c1 | 107 °C |  | ready biodegradability: readily biodegradable
CNc1ccccn1 | 15 °C | 200 °C | 
C/C=C/C=C/C=O |  | 174 °C | log10 Henry constant (atm·m³/mol): -5.01
ON=C(C(=NO)c1ccccc1)c1ccccc1 | 240 °C |  | 
O=[N+]([O-])c1cc(S(=O)(=O)Nc2ccccc2)ccc1Nc1ccccc1 | 156 °C |  | ready biodegradability: not readily biodegradable; log10 BCF: 1.61; log10 biotransformation half-life (days): -0.66
CCC1(c2ccccc2)C(=O)NC(=O)N(C)C1=O (centres undefined) | 176 °C |  | 
CCCCCCCCCCCCCCCCCCCCCCCCCC(=O)OC | 63.8 °C |  | 
Brc1cc2ccccc2c2ccccc12 | 64.5 °C |  | 
C[B]C | -72.5 °C | 70.5 °C | 
CCc1cccc(C)c1C | -49.5 °C | 194 °C | log10 biodegradation half-life (days): 0.778; log10 vapour pressure (mmHg): -0.206
Cc1ccccc1NC(N)=S | 162 °C |  | 
O=C(O)c1cccc(O)c1O | 204 °C |  | 
Cc1c(N(C)C)c(=O)n(-c2ccccc2)n1C | 134 °C |  | 
NC1=NCCS1 | 85.3 °C |  | 
CC(C)(O)CO |  | 176 °C | 
S=P(N1CC1)(N1CC1)N1CC1 | 51.5 °C |  | 
CCOCCN |  | 108 °C | 
O=C(O)c1ccc(F)cc1F | 189 °C |  | 
OCCN1CCNCC1 |  | 246 °C | 
c1ccc2oncc2c1 |  | 215 °C | 
CC(C)CC(C)O (centres undefined) | -90 °C | 132 °C | log10 Henry constant (atm·m³/mol): -4.35; log10 vapour pressure (mmHg): 0.724; ready biodegradability: readily biodegradable
CC(C)COC(=O)CC(C)C |  | 168 °C | log10 vapour pressure (mmHg): 0.266
CCN(CC)CCCN(c1ccccc1)C1Cc2ccccc2C1 | 120 °C |  | 
FCCCCCCCl |  | 168 °C | 
CC(C)c1ccc(O)c(O)c1 | 78 °C | 271 °C | 
CCCSP(=O)(OCC)Oc1cnn(-c2ccc(Cl)cc2)c1 (centres undefined) |  |  | log10 vapour pressure (mmHg): -7.92

Structure (SMILES) | melting point | boiling point | also measured
Clc1ccc(-c2c(Cl)ccc(Cl)c2Cl)c(Cl)c1 |  |  | log10 biotransformation half-life (days): 2.61
CC(=O)C=C(C)C | -59 °C | 130 °C | log10 vapour pressure (mmHg): 0.914; ready biodegradability: readily biodegradable
COc1ccccc1C=C(C(=O)O)c1ccccc1 | 158 °C |  | 
c1cncc([C@@H]2CCCCN2)c1 | 9 °C | 276 °C | 
CCCCCCCCCCCCCC(CCCCCCCCCC)CCCCCCCCCC | 10.8 °C |  | 
CC(=O)OCC#N |  | 200 °C | 
Cc1nnc(N)s1 | 224 °C |  | 
Nc1ccc2c(c1)CCC2 | 37.5 °C | 248 °C | 
CC1=C(CCO)SC2=Nc3nc(C)ncc3CN21 | 229 °C |  | 
CCCCN(C)C |  | 95 °C | 
CCC(C)C(C)(C)C (centres undefined) |  |  | log10 biodegradation half-life (days): 0.845
Nc1ccc(N)cc1 | 146 °C | 267 °C | ready biodegradability: not readily biodegradable
FC(F)(F)C(Cl)Br (centres undefined) | -118 °C | 50.2 °C | log10 Henry constant (atm·m³/mol): -1.69; log10 vapour pressure (mmHg): 2.48
O=CC(Cl)(Cl)Cl | -57.5 °C | 97.8 °C | log10 Henry constant (atm·m³/mol): -8.54; log10 vapour pressure (mmHg): 1.7; ready biodegradability: not readily biodegradable
C=CCOC |  | 44 °C | 
C=C(NC(C)=O)C(=O)CCC(N)=O | 130 °C |  | 
CCOC(=O)c1cccs1 |  | 218 °C | 
CC(=O)Oc1ccc(C2(c3ccc(OC(C)=O)cc3)C(=O)Nc3ccccc32)cc1 | 242 °C |  | 
O=c1ccn([C@@H]2O[C@H](CO)[C@@H](O)[C@@H]2O)c(=O)[nH]1 | 165 °C |  | 
Cc1cccc(C)c1N(C(=O)CCl)C1CCOC1=O (centres undefined) | 146 °C |  | log10 vapour pressure (mmHg): -6.82
O=C(Nc1ccc2c(O)cc(S(=O)(=O)O)cc2c1)Nc1ccc2c(O)cc(S(=O)(=O)O)cc2c1 |  |  | log10 BCF: 0.26
OCCCCCCCCCCO | 74 °C |  | 
CC(O)CN(C)C (centres undefined) | 124 °C | 124 °C | 
FC(F)=C(F)C(F)(F)C(F)(F)C(F)(F)C(F)(F)F |  | 57 °C | 
NC(=O)c1ccccc1Br | 160 °C |  | 
C[Se][Se]C |  | 156 °C | log10 vapour pressure (mmHg): 0.455

Structure (SMILES) | melting point | boiling point | also measured
Cc1ccc(S)cc1 | 43 °C | 195 °C | log10 vapour pressure (mmHg): -0.191
CC(CCC(=O)O)n1nnc2ccccc21 (centres undefined) | 86 °C |  | 
CC(C)(C)NC(=O)COC(=O)c1ccccc1 | 112 °C |  | 
CC(=CC(=O)c1ccccc1)c1ccccc1 |  | 342 °C | 
CCN(CC)c1cccc(O)c1 | 78 °C | 276 °C | 
CCOC(CN)OCC | -78 °C | 163 °C | 
Cc1ccc(N=C=Nc2ccc(C)cc2)cc1 | 58.5 °C |  | 
COc1ccc2c(=O)c(C)c(-c3ccccc3)oc2c1CN(C)C | 110 °C |  | 
O=C(O)c1cccc([N+](=O)[O-])c1 | 141 °C |  | ready biodegradability: not readily biodegradable; log10 BCF: 0.85
CN(C(O)=NC(C)(C)c1ccccc1)c1ccccc1 | 72 °C |  | 
CC(=O)OCOC(=O)[C@@H]1N2C(=O)[C@@H](NC(=O)Cc3ccccc3)[C@H]2SC1(C)C | 107 °C |  | 
C=C(Br)Br |  | 92 °C | 
C[C@H](N[C@H](CCc1ccccc1)C(=O)O)C(=O)N1CCC[C@H]1C(=O)O | 150 °C |  | 
CC(Cl)C(C)(C)Cl (centres undefined) |  | 129 °C | 
C[C@@H]1C(=O)OC[C@H]2[C@@H]1CC[C@@H]2C | 60.5 °C |  | 
CCC(=O)C(C)(C)C | -45 °C | 126 °C | 
Cc1noc(NS(=O)(=O)c2ccc(N)cc2)c1C | 191 °C |  | 
CCN(C(=O)SCc1ccccc1)C(C)C(C)C (centres undefined) |  |  | log10 vapour pressure (mmHg): -5.12
CCOP(=O)(SC(C)CC)N1CCSC1=O (centres undefined) |  |  | log10 Henry constant (atm·m³/mol): -9.76; log10 vapour pressure (mmHg): -5.38
O=C=Nc1ccc(-c2ccccc2)cc1 | 56 °C | 283 °C | 
OCCC1CCCCN1 (centres undefined) | 69 °C | 202 °C | 
Oc1ccc2c(c1)[C@@]13CCCC[C@H]1[C@@H](C2)NCC3 | 271 °C |  | 
O=NN([O-])c1ccccc1.[NH4+] | 164 °C |  | 
CCOC(=O)NC(C)(C)Cc1ccc(Cl)cc1 | 52.8 °C |  | 
CCC1(C)CCCCC1 |  | 152 °C | 
CN1CCc2c(c3ccccc3n2Cc2ccccc2)C1 | 95 °C |  | 

Structure (SMILES) | melting point | boiling point | also measured
CCc1cnc(C2=NC(C)(C(C)C)C(=O)N2)c(C(=O)O)c1 (centres undefined) | 171 °C |  | log10 Koc (L/kg): 0.85
CC12CCC(C1)C(C)(C)C2O (centres undefined) |  |  | log10 vapour pressure (mmHg): -1.2
CC#CCO | -2.2 °C | 148 °C | 
O=C1NC(=O)c2ccccc21 | 238 °C |  | ready biodegradability: readily biodegradable
C=CC(C)CCC=C(C)C (centres undefined) |  |  | ready biodegradability: readily biodegradable
CCNC(=O)NCC | 112 °C | 263 °C | 
Oc1c(Cl)cc(Cl)cc1Br | 68 °C |  | 
Clc1ccc(C/C(=C\CN2CCCC2)c2ccccc2)cc1 | 48.5 °C |  | 
CC(=O)C(F)(F)F |  | 22 °C | log10 Henry constant (atm·m³/mol): -5.11
c1ccc(NNc2ccccc2)cc1 | 131 °C | 309 °C | log10 Koc (L/kg): 2.98; log10 vapour pressure (mmHg): -3.36
COC(=O)c1cccc(C(=O)OC)c1 | 67.5 °C | 282 °C | ready biodegradability: readily biodegradable
CC1=C(C(=O)Nc2ccccc2)CCCO1 | 110 °C |  | 
Brc1ccc(Oc2cc(Br)c(Br)c(Br)c2)cc1Br |  |  | log10 BCF: 6.43
Nc1ccc(N)c2c1C(=O)c1c(N)ccc(N)c1C2=O | 285 °C |  | 
O=C(O)C(Cl)=C(Cl)Cl | 76 °C | 222 °C | 
CCC(=O)OCc1ccccc1 |  | 220 °C | 
CCCCOCCOC(=O)CCCOc1ccc(Cl)cc1Cl |  |  | log10 Koc (L/kg): 2.7
CCCCCCCCCC1CCCCC1 | -10 °C | 282 °C | log10 vapour pressure (mmHg): -2.61
BrCCCBr | -34.2 °C | 167 °C | log10 Henry constant (atm·m³/mol): -3.05; log10 vapour pressure (mmHg): 0.134; ready biodegradability: not readily biodegradable
O=C(O)CC(S)C(=O)O (centres undefined) | 149 °C |  | 
O=S(=O)(O)c1ccc2ccc(S(=O)(=O)O)cc2c1 | 199 °C |  | 
CN1CCN(C2=Nc3ccccc3Oc3ccc(Cl)cc32)CC1 | 110 °C |  | 
C=CCOc1c(Br)cc(C(C)(C)c2cc(Br)c(OCC=C)c(Br)c2)cc1Br | 119 °C |  | 
CCN(CC)CC#N |  | 170 °C | 
